Results from patent US20090137549A1, “Novel compounds useful for the treatment of degenerative & inflamatory diseases” (priority 2006, published 2009).

Target: PDE1A (Homo sapiens, UniProt P54750)
Assay: PDE1A dose response, Cyclic Nucleotide Phosphodiesterase Assay Kit from Biomol (colorimetric)
Format: biochemical
Settings: purified PDE1A enzyme, 100 μM cAMP
Outline: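 Purified PDE1A hydrolysed 100 μM cAMP with 5′-nucleotidase in Tris 20 mM pH 7.4 with calmodulin, Ca2+, Mg2+, 45 min at 37° C. Released phosphate read by malachite-green absorbance at 615 nm. Duplicate 8-point 1/3 dilutions from 20 μM, 1% DMSO; 10 μM vardenafil defined 100% inhibition.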

Row | IC50 [nM] | Compound
1 | 501 to 1000 | Cc1nn(C2CCCCC2)c2nc(C3CCCN(C(=O)c4ccccc4F)C3)[nH]c(=O)c12 (stereo not drawn) [Example 92, 1-cyclohexyl-6-(1-(2-fluorobenzoyl)piperidin-3-yl)-3-methyl-1H-pyrazolo[3,4-d]pyrimidin-4(5H)-one]
2 | 501 to 1000 | COc1ccccc1C(=O)N1CC(c2nc3c(c(C)nn3C3CCCCC3)c(=O)[nH]2)C1 [Example 93, 1-cyclohexyl-6-(1-(2-methoxybenzoyl)azetidin-3-yl)-3-methyl-1H-pyrazolo[3,4-d]pyrimidin-4(5H)-one]
3 | 501 to 1000 | O=C(N1CCOCC1)N1CC(c2nc3c(cnn3C3CCCCC3)c(=O)[nH]2)C1 [Example 94, 1-cyclohexyl-6-(1-(morpholine-4-carbonyl)azetidin-3-yl)-1H-pyrazolo[3,4-d]pyrimidin-4(5H)-one]
4 | 501 to 1000 | Cc1nn(C2CCCCC2)c2nc(C3CCCN(C(=O)c4cccn4C)C3)[nH]c(=O)c12 (stereo not drawn) [Example 95, 1-cyclohexyl-3-methyl-6-(1-(1-methyl-1H-pyrrole-2-carbonyl)piperidin-3-yl)-1H-pyrazolo[3,4-d]pyrimidin-4(5H)-one]
5 | 501 to 1000 | Cc1nn(C2CCCCC2)c2nc(C3CCCN(C(=O)c4ccc(C(F)(F)F)cc4)C3)[nH]c(=O)c12 (stereo not drawn) [Example 96, 1-cyclohexyl-3-methyl-6-(1-(4-(trifluoromethyl)benzoyl)piperidin-3-yl)-1H-pyrazolo[3,4-d]pyrimidin-4(5H)-one]
6 | 1000 to 1500 | Cc1nn(C2CCCCC2)c2nc(C3CCCN(C(=O)c4ccsc4)C3)[nH]c(=O)c12 (stereo not drawn) [Example 97, 1-cyclohexyl-3-methyl-6-(1-(thiophene-3-carbonyl)piperidin-3-yl)-1H-pyrazolo[3,4-d]pyrimidin-4(5H)-one]
7 | 1000 to 1500 | Cc1nn(C2CCCCC2)c2nc(C3CCCN(S(=O)(=O)c4cn(C)cn4)C3)[nH]c(=O)c12 (stereo not drawn) [Example 98, 1-cyclohexyl-3-methyl-6-(1-(1-methyl-1H-imidazol-4-ylsulfonyl)piperidin-3-yl)-1H-pyrazolo[3,4-d]pyrimidin-4(5H)-one]
8 | 1000 to 1500 | COc1ccccc1NC(=O)N1CCCC(c2nc3c(c(C)nn3C3CCCCC3)c(=O)[nH]2)C1 (stereo not drawn) [Example 99, 3-(1-cyclohexyl-3-methyl-4-oxo-4,5-dihydro-1H-pyrazolo[3,4-d]pyrimidin-6-yl)-N-(2-methoxyphenyl)piperidine-1-carboxamide]
9 | 1000 to 1500 | Cc1nn(C2CCCCC2)c2nc(C3CCCN(S(=O)(=O)c4ccccc4Cl)C3)[nH]c(=O)c12 (stereo not drawn) [Example 100, 6-(1-(2-chlorophenylsulfonyl)piperidin-3-yl)-1-cyclohexyl-3-methyl-1H-pyrazolo[3,4-d]pyrimidin-4(5H)-one]
10 | 1000 to 1500 | Cc1nn(C2CCCCC2)c2nc(C3CCCN(C(=O)c4cccs4)C3)[nH]c(=O)c12 (stereo not drawn) [Example 101, 1-cyclohexyl-3-methyl-6-(1-(thiophene-2-carbonyl)piperidin-3-yl)-1H-pyrazolo[3,4-d]pyrimidin-4(5H)-one]
11 | 1000 to 1500 | Cc1nn(C2CCC2)c2nc(C3CCCN(C(=O)c4ccc(C#N)cc4)C3)[nH]c(=O)c12 (stereo not drawn) [Example 102, 4-(3-(1-cyclobutyl-3-methyl-4-oxo-4,5-dihydro-1H-pyrazolo[3,4-d]pyrimidin-6-yl)piperidine-1-carbonyl)benzonitrile]
12 | 1000 to 1500 | Cc1nn(C2CCCCC2)c2nc(C3CCCN(S(=O)(=O)Cc4ccccc4)C3)[nH]c(=O)c12 (stereo not drawn) [Example 103, 6-(1-(benzylsulfonyl)piperidin-3-yl)-1-cyclohexyl-3-methyl-1H-pyrazolo[3,4-d]pyrimidin-4(5H)-one]
13 | 1000 to 1500 | CCCCCS(=O)(=O)N1CC(c2nc3c(cnn3C3CCCCC3)c(=O)[nH]2)C1 [Example 104, 1-cyclohexyl-6-(1-(pentylsulfonyl)azetidin-3-yl)-1H-pyrazolo[3,4-d]pyrimidin-4(5H)-one]
14 | 1000 to 1500 | O=c1[nH]c(C2CCCN(S(=O)(=O)c3ccc(OC(F)(F)F)cc3)C2)nc2c1cnn2C1CCCCC1 (stereo not drawn) [Example 105, 1-cyclohexyl-6-(1-(4-(trifluoromethoxy)phenylsulfonyl)piperidin-3-yl)-1H-pyrazolo[3,4-d]pyrimidin-4(5H)-one]
15 | 1000 to 1500 | Cc1nn(C2CCCCC2)c2nc(C3CCCN(S(=O)(=O)c4ccccc4)C3)[nH]c(=O)c12 (stereo not drawn) [Example 106, 1-cyclohexyl-3-methyl-6-(1-(phenylsulfonyl)piperidin-3-yl)-1H-pyrazolo[3,4-d]pyrimidin-4(5H)-one]
16 | 1000 to 1500 | Cc1nn(C2CCCCC2)c2nc(C3CCCN(S(=O)(=O)c4ccccc4OC(F)(F)F)C3)[nH]c(=O)c12 (stereo not drawn) [Example 107, 1-cyclohexyl-3-methyl-6-(1-(2-(trifluoromethoxy)phenylsulfonyl)piperidin-3-yl)-1H-pyrazolo[3,4-d]pyrimidin-4(5H)-one]
17 | 1000 to 1500 | CC(C)N1CC(n2ncc3c(=O)[nH]c(C4CN(C(=O)Nc5ccc(F)cc5)C4)nc32)C1 [Example 108, N-(4-fluorophenyl)-3-(1-(1-isopropylazetidin-3-yl)-4-oxo-4,5-dihydro-1H-pyrazolo[3,4-d]pyrimidin-6-yl)azetidine-1-carboxamide]
18 | 1000 to 1500 | Cc1nn(-c2ccccc2)c2nc(C3CCCN(C(=O)c4ccc(C#N)cc4)C3)[nH]c(=O)c12 (stereo not drawn) [Example 109, 4-(3-(3-methyl-4-oxo-1-phenyl-4,5-dihydro-1H-pyrazolo[3,4-d]pyrimidin-6-yl)piperidine-1-carbonyl)benzonitrile]
19 | 1000 to 1500 | N#Cc1ccc(C(=O)N2CCCC(c3nc4c(cnn4-c4ccccc4)c(=O)[nH]3)C2)cc1 (stereo not drawn) [Example 110, 4-(3-(4-oxo-1-phenyl-4,5-dihydro-1H-pyrazolo[3,4-d]pyrimidin-6-yl)piperidine-1-carbonyl)benzonitrile]
20 | 1000 to 1500 | CCCn1nc(C)c2c(=O)[nH]c(C3CCCN(S(=O)(=O)c4ccc(OC)cc4)C3)nc21 (stereo not drawn) [Example 111, 6-(1-(4-methoxyphenylsulfonyl)piperidin-3-yl)-3-methyl-1-propyl-1H-pyrazolo[3,4-d]pyrimidin-4(5H)-one]
21 | 1000 to 1500 | Cc1nn(C2CCCCC2)c2nc(C3CCCN(C(=O)CCc4ccccc4)C3)[nH]c(=O)c12 (stereo not drawn) [Example 112, 1-cyclohexyl-3-methyl-6-(1-(3-phenylpropanoyl)piperidin-3-yl)-1H-pyrazolo[3,4-d]pyrimidin-4(5H)-one]
22 | 1000 to 1500 | CC(=O)Nc1ccc(C(=O)N2CCCC(c3nc4c(c(C)nn4C4CCCCC4)c(=O)[nH]3)C2)cc1 (stereo not drawn) [Example 113, N-(4-(3-(1-cyclohexyl-3-methyl-4-oxo-4,5-dihydro-1H-pyrazolo[3,4-d]pyrimidin-6-yl)piperidine-1-carbonyl)phenyl)acetamide]
23 | 501 to 1000 | CCc1nn(C2CCCCC2)c2nc(C3CN(C(=O)Nc4ccccc4OC(F)F)C3)[nH]c(=O)c12 [Example 114, 3-(1-cyclohexyl-3-ethyl-4-oxo-4,5-dihydro-1H-pyrazolo[3,4-d]pyrimidin-6-yl)-N-(2-(difluoromethoxy)phenyl)azetidine-1-carboxamide]
24 | 101 to 500 | Cc1nn(C2CCCCC2)c2nc(C3CN(C(=O)OCc4ccccc4)C3)[nH]c(=O)c12 [Example 115, Benzyl 3-(1-cyclohexyl-3-methyl-4-oxo-4,5-dihydro-1H-pyrazolo[3,4-d]pyrimidin-6-yl)azetidine-1-carboxylate]
